Source: patent US10729749B2, “Neurodegenerative disorders” (priority 2014, dated 2020)
Ends that are not written are not given here.

What was measured:
Format in all cases: cell-based
PC12 cells [1] = test: Acetylcholinesterase activity assay (AChE release from PC12 cells, Ellman reagent); settings: % AChE release compared to untreated control
Experimental: AChE activity was measured using the Ellman reagent that measures the presence of thiol groups as a result of AChE activity. Cells were plated the day before the experiment as for the cell viability assay. […] The Ellman reagent was prepared as a mixture of the 3 solutions in a ratio 33(A):3(B):4(C). Absorbance measurements were taken at regular intervals (3, 10, 30 and 60 mins) across experiments at 405 nm.

[2] = Cell viability assay (Cell Counting Kit-8); settings: % PC12 cell viability compared to untreated control;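 note: PC12 cells in 96-well plates, WST-8 turned into formazan by cellular dehydrogenases, absorbance read at 450 nm after 2 h with the reagent, signal proportional to living cell number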
Excerpt: A Cell Counting Kit-8 (CCK-8) was used as an improvement of the SRB technique used before. By utilizing the highly water-soluble tetrazolium salt WST-8, CCK-8 produces a water-soluble formazan dye upon reduction in the presence of an electron carrier. WST-8 is reduced by dehydrogenases in cells to give a yellow colored product (formazan), which is soluble in the tissue culture medium. The amount of the formazan dye generated by the activity of dehydrogenases in cells is directly proportional to the number of living cells. PC12 cells are plated in 200 μl of complete growth medium the day before the experiment in 96 well plates. […] Subsequently, 100 μl of growth medium is removed and 10 μl of CCK-8 (Cell Counting Kit-8) solution is added. The plate is incubated for 2 hours in the incubator and then placed in the absorbance plate reader. The absorbance must be measured at 450 nm.

PC12 cells [3] = test: Calcium fluorometry (Fluo-8, acetylcholine-induced calcium influx); design: Calcium: scale not given here; settings: for Calcium: calcium influx value, control based on acetylcholine alone; for dose-dependent effect on calcium potentiation against T30: dose-dependent experiments, FIGS. 8 and 9
Excerpt: A final criterion used to determine active peptides is the amount of calcium influx into PC12 cells caused by the peptide. The calcium influx value can be calculated as described in the methods section. The calcium value corresponds to the result from the experiment when applying T30 or Aβ alone or in conjunction with the small peptides. The control value for these experiments is based on the calcium influx induced by acetylcholine alone. Preferably, the peptide, derivative or analogue thereof has a calcium influx value of less than 120, and more preferably a value of 97-120.
PC12 cells are plated in 200 μl of complete growth medium the day before the experiment in 96 well plates. On the day of the experiment, the Fluo-8 solution (Abcam) is prepared (as per provider protocol). Subsequently, 100 μl of growth medium is removed and 100 μl of Fluo-8 solution is added. Treatments with T30 or Aβ in conjunction with NBP-14 or small peptides are added and incubated for 30 minutes in the incubator and 30 minutes room temperature.
After 1 hour, the plate is placed in the fluorescence plate reader (Fluostar). Before reading the fluorescence, acetylcholine (ACh) 100 μM is prepared and placed in the Fluostar injector. For each well, the reading will be formed by a basal fluorescence followed by acetylcholine injection that will induce an increase of calcium via nicotinic receptors. The effects of the peptides are then evaluated.

PC12 cells [4] = test: Value coefficient (AChE release vs PC12 cell viability) and filter selection; settings: for Value AChE/Viability: 1.0 to 1.1 = protective, control = 1; for neuroprotective agent against T30 when all four filters are taken into consideration / neuroprotective agent against Aβ when all four filters are taken into consideration: filters: value coefficient, in silico binding, calcium influx, peptide size
Excerpt: AChE release vs PC12 cell viability (for which there is a significant negative correlation); • 2. In silico binding to the allosteric site of the α7 nicotinic-receptor; • 3. Calcium influx into PC12 cells; and • 4. Peptide size.

[5] = T30 5 μM + small peptide 0.5 μM

Substance | AChE (PC12 cells [1]; Aβ 5 μM + small peptide 0.5 μM) [%] | viability ([2]; Aβ 5 μM + small peptide 0.5 μM) [%] | Calcium (PC12 cells [3]; Aβ + small peptide) | Value AChE/Viability (PC12 cells [4]; Aβ 5 μM + small peptide 0.5 μM) | AChE (PC12 cells [1]; [5]) [%] | viability [2, 5] [%] | Calcium (PC12 cells [3]; T30 + small peptide) | Value AChE/Viability (PC12 cells [4]; [5]) | neuroprotective agent against T30 when all four filters are taken into consideration (PC12 cells [4]) | neuroprotective agent against Aβ when all four filters are taken into consideration (PC12 cells [4]) | dose-dependent effect on calcium potentiation against T30 (PC12 cells [3])
HRWSSY [NBP-607] | 97.53 | 94.9 | 168.97 | 1.03 | – | – | – | – | – | – | –
MVHWKAEFHRWSS [NBP-1313] | – | – | – | – | 93.64 | 89 | 118.94 | 1.05 | – | – | –
EFHRWSS [NBP-705, EFHRWSS] | – | – | – | – | 94.07 | 91 | 111.98 | 1.03 | neuroprotective agents against T30 | – | –
AEFHRWSS [NBP-804] | – | – | – | – | 107.69 | 108 | 106.7 | 1 | neuroprotective agents against T30 | – | –
SSYMVHWKAEFHRW [NBP-1410] | 93.51 | 93.5 | 160.54 | 1 | 93.51 | 93.5 | 120.09 | 1 | – | – | –
WKAEFH [NBP-602] | – | – | – | – | 112.32 | 108 | 169.86 | 1.04 | – | – | –
WSSYMVHWKAEFHR [NBP-1409] | – | – | – | – | 94.85 | 94.8 | 94.59 | 1 | – | – | –
FHRWSSYMVHWKAE [NBP-1406] | – | – | – | – | 92.78 | 86.6 | 101.06 | 1.07 | – | – | –
KAEFHRWSSYMVH [NBP-1303] | 96.73 | 91.2 | 106.33 | 1.06 | – | – | – | – | – | – | –
WKAEFHRWSSY [NBP-1102] | – | – | – | – | 104.31 | 104 | 89.28 | 1 | – | – | –
FHRWSSYMVHWK [NBP-1206] | 96.92 | 93.6 | 127.27 | 1.04 | – | – | – | – | – | – | –
SYMVHW [NBP-611, SYMVHW] | 88.60 | 82.2 | 114.39 | 1.08 | – | – | – | – | – | agents against Aβ | –
HWKAEF [NBP-601, HWKAEF] | – | – | – | – | 100.99 | 93.2 | 118.37 | 1.08 | neuroprotective agents against T30 | – | protect against T30 effects
HRWSSYM [NBP-707] | – | – | – | – | 98.35 | 98.5 | 120.17 | 1 | – | – | –
MVHWKAEFHR [NBP-1013] | – | – | – | – | 91.79 | 85.3 | 181.12 | 1.08 | – | – | –
YMVHWKAEFHRW [NBP-1212] | – | – | – | – | 88.29 | 88.3 | 78 | 1 | – | – | –
HRWSSYMVHWKAEF [NBP-1407] | – | – | – | – | 94.49 | 90.5 | 111.71 | 1.04 | – | – | –
RWSSYMVHWKA [NBP-1108] | 82.74 | 77.7 | 392.11 | 1.06 | – | – | – | – | – | – | –
AEFHRWSSYMV [NBP-1104] | – | – | – | – | 102.36 | 111 | 119.82 | 1 | – | – | –
VHWKAEFHRWSS [NBP-1214] | 89.28 | 85.5 | 217.64 | 1.04 | – | – | – | – | – | – | –
HWKAEFHRWSS [NBP-1101] | – | – | – | – | 91.9 | 91.9 | 86.58 | 1 | – | – | –
HRWSSYMVHWKA [NBP-1207] | 94.30 | 87.4 | 261.22 | 1.08 | – | – | – | – | – | – | –
MVHWKA [NBP-613, MVHWKA] | – | – | – | – | 103.45 | 103 | 102.29 | 1 | neuroprotective agents against T30 | – | protect against T30 effects
SYMVHWKAEF [NBP-1011] | 84.13 | 81.7 | 161.87 | 1.03 | – | – | – | – | – | – | –
MVHWKAEFHRWSSY [NBP-1413] | 99.85 | 95.2 | 125.28 | 1.05 | – | – | – | – | – | – | –

Substance | AChE (PC12 cells [1]; Aβ 5 μM + small peptide 0.5 μM) [%] | viability ([2]; Aβ 5 μM + small peptide 0.5 μM) [%] | Calcium (PC12 cells [3]; Aβ + small peptide) | Value AChE/Viability (PC12 cells [4]; Aβ 5 μM + small peptide 0.5 μM) | AChE (PC12 cells [1]; [5]) [%] | viability [2, 5] [%] | Calcium (PC12 cells [3]; T30 + small peptide) | Value AChE/Viability (PC12 cells [4]; [5]) | neuroprotective agent against T30 when all four filters are taken into consideration (PC12 cells [4]) | neuroprotective agent against Aβ when all four filters are taken into consideration (PC12 cells [4]) | dose-dependent effect on calcium potentiation against T30 (PC12 cells [3])
VHWKAE [NBP-614] | 85.05 | 77.7 | 124.34 | 1.09 | – | – | – | – | – | – | –
WSSYMVHWKA [NBP-1009] | 101.23 | 97.5 | 255.80 | 1.04 | – | – | – | – | – | – | –
HRWSSYMVHWK [NBP-1107] | – | – | – | – | 93.13 | 93.1 | 95.43 | 1 | – | – | –
SSYMVHWKAEFH [NBP-1210] | 98.18 | 97.5 | 127.83 | 1.01 | – | – | – | – | – | – | –
SYMVHWK [NBP-711] | 108.57 | 106 | 148.17 | 1.02 | – | – | – | – | – | – | –
SSYMVHWK [NBP-810] | 96.22 | 95.3 | 156.05 | 1.01 | – | – | – | – | – | – | –
VHWKAEFHRWSSY [NBP-1314] | 104.08 | 97.9 | 130.85 | 1.06 | – | – | – | – | – | – | –
MVHWKAEFHRWS [NBP-1213] | 93.73 | 90.8 | 146.97 | 1.03 | – | – | – | – | – | – | –
SYMVHWKAEFHRW [NBP-1311] | 93.51 | 86.1 | 137.63 | 1.09 | – | – | – | – | – | – | –
YMVHW [NBP-512] | 104.81 | 104 | 163.09 | 1.01 | – | – | – | – | – | – | –
KAEFHRWSSYMV [NBP-1203] | 99.63 | 95.5 | 192.38 | 1.04 | – | – | – | – | – | – | –
HWKAEFHR [NBP-801] | 108.63 | 102 | 168.66 | 1.06 | – | – | – | – | – | – | –
HRWSSYMVHWKAE [NBP-1307] | 94.29 | 92.5 | 218.25 | 1.02 | – | – | – | – | – | – | –
EFHRWSSYM [NBP-905] | 106.42 | 97.2 | 194.22 | 1.09 | – | – | – | – | – | – | –
RWSSYMVHWKAEFH [NBP-1408] | – | – | – | – | 93.64 | 93.6 | 80.25 | 1 | – | – | –
EFHRWSSYMVHWKA [NBP-1405] | – | – | – | – | 91.57 | 83.9 | 100.59 | 1.09 | – | – | –
EFHRWSSYMVHW [NBP-1205] | – | – | – | – | 95.79 | 89.4 | 132.71 | 1.07 | – | – | –
RWSSYMV [NBP-708, RWSSYMV] | – | – | – | – | 97.79 | 97.8 | 97.04 | 1 | neuroprotective agents against T30 | – | –
WSSYMVH [NBP-709] | 108.99 | 102 | 288.61 | 1.07 | – | – | – | – | – | – | –
WSSYM [NBP-509] | 106.20 | 102 | 363.48 | 1.04 | – | – | – | – | – | – | –
RWSSY [NBP-508] | 106.06 | 97.6 | 120.72 | 1.09 | – | – | – | – | – | – | –
SSYMVHW [NBP-710, SSYMVHW] | 108.85 | 109 | 114.33 | 1 | – | – | – | – | – | agents against Aβ | –
YMVHWKAEFHR [NBP-1112] | 98.77 | 93.4 | 127.62 | 1.06 | – | – | – | – | – | – | –
HWKAEFHRWSSY [NBP-1201] | 94.84 | 93.1 | 114.35 | 1.02 | – | – | – | – | – | – | –
